From paper PMC3005334 (Cell, 2010)

Columns and labels:
Erg1 = target: T1, Erg1 (Saccharomyces cerevisiae, UniProt P32476); format: binding; details: in vivo bound, LC-MS
T1 sequence (P32476 1-496): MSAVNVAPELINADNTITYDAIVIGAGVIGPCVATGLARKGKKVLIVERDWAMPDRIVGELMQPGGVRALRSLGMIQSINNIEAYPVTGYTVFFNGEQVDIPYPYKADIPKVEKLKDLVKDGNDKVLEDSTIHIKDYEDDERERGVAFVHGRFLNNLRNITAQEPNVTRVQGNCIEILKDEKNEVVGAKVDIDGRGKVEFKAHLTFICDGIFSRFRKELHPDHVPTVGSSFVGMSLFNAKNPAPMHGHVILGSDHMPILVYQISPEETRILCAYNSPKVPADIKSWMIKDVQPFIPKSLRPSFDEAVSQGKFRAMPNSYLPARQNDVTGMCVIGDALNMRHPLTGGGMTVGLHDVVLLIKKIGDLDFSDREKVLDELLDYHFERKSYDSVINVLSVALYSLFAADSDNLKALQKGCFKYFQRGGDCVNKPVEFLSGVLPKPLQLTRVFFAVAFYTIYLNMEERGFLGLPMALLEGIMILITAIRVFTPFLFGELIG

ypk1Δ cells [1] = assay: Growth of kinase deletion strain in the presence of ergosterol inhibitor; format: cell-based, Saccharomyces cerevisiae; details: different concentrations of inhibitor, cell density
ypk1Δ cells [2] = details: ref Gupta et al., 2003; Hillenmeyer et al., 2008; cited from earlier work
Erg3 = target: T2, Erg3 (Saccharomyces cerevisiae, UniProt P32353); format: binding; details: in vivo bound, LC-MS; known substrate
T2 sequence (P32353 1-365): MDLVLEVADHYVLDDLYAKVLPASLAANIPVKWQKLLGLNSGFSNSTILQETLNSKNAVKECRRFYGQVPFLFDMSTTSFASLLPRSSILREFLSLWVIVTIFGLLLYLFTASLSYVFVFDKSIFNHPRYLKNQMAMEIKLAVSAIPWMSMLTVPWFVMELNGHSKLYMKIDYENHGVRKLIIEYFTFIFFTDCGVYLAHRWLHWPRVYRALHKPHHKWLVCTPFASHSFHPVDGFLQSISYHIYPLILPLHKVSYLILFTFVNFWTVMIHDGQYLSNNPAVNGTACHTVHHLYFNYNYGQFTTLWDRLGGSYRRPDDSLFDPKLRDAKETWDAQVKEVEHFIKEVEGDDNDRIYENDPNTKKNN

[3] = tested on: 21 ergosterol biosynthetic proteins (Erg proteins); details: of 21 Erg enzymes, above the control

Row | SMILES | association with Erg1 among the 21 Erg proteins (Erg1) | number of Erg proteins the metabolite co-purified with [3] | also measured
1 | CC(C)=CCC[C@@H](C)[C@H]1CC[C@H]2C3=C(CC[C@]12C)[C@@]1(C)CCC(=O)C[C@@H]1CC3 [5α-cholesta-8,24-dien-3-one] | specifically associated only with Erg1 | – | –
2 | C[C@@H]1[C@H](O)[C@@H](C)/C=C/C=C/CC/C=C/C=C/C=C/C=C/C(O[C@H]2O[C@H](C)[C@@H](O)[C@H](N)[C@@H]2O)CC2O[C@](O)(CC(O)C(O)CCC(O)CC(O)CC(O)CC(=O)O[C@H]1C)CC(O)C2C(=O)O (stereo partly shown) [nystatin] | – | – | growth of ypk1Δ cells (ypk1Δ cells [1]): sensitive; sensitivity of yeast strains lacking Ypk1 (ypk1Δ cells [2]): sensitive
3 | C=C(CC[C@@H](C)[C@H]1CC[C@H]2C3=CC[C@H]4C[C@@H](O)CC[C@]4(C)[C@H]3CC[C@]12C)C(C)C [episterol] | – | 3 | binding to Erg3 (Erg3): bound
4 | CC(C)=CCC/C(C)=C/CC/C(C)=C/CC/C=C(\C)CC/C=C(\C)CC[C@@H]1OC1(C)C [(S)-2,3-epoxysqualene] | specifically associated only with Erg1 | – | –
5 | CC(C)=CCC[C@@H](C)[C@H]1CC[C@@]2(C)C3=C(CC[C@]12C)[C@@]1(C)CC[C@H](O)C(C)(C)[C@@H]1CC3 [lanosterol] | – | 5 | –
